Common to all, as to assay type: cell-based, mouse
Experiment [1] concerns phosphorylated EGFR (p-EGFR). As to the kind of experiment: p-EGFR immunostaining of mdx EDL myofibers. The settings on record: 1 h with or without recombinant EGF 100 ng/mL, FIG. 3A. The method, then:
Therefore, the inventors conclude that that EGFR signaling occurs normally in mdx satellite cells.
To assess the signaling status of EGFR in quiescent satellite cells, EDL muscles were fixed in 4% PFA immediately post-dissection. Myofiber bundles were teased from the fixed muscles by tweezers.
Immunostaining and Antibodies. EDL myofibers were fixed for 10 min in 2% PFA and washed with PBS. Fibers were blocked and permeablized in horse serum blocking buffer (5% horse serum, 1% BSA (Sigma), and 0.5% Triton X-100 (Sigma) in PBS) for 1 h at room temperature or at 4° C. over night. Primary antibodies were applied in blocking solution for 2 h at room temperature or at 4° C. over night. Samples were subsequently washed with PBS and stained with appropriate fluorescently labeled secondary antibodies (Alexa fluor 488, 546, or 647) for 1 h at room temperature. After washing with PBS, samples were mounted with Permafluor (Fisher).

The subject of experiment [2] is mdx satellite cells. Description: Myog-expressing / myogenic cells on mdx myofibers at 72 h. To be noted: 72 h of mdx myofiber culture, FIG. 4D.
Description: EDL fiber Culture and siRNA Transfection. […] Briefly, EDL were carefully dissected and incubated in DMEM with 2% L-glutamine, 4.5% glucose, and 110 mg/mL sodium pyruvate (Gibco) containing 0.2% collagenase I (Sigma) for 45 min. Myofibers were isolated using gentle trituration with a glass pipet. Myofibers were cultured for 36, 42, or 72 h in DMEM containing 20% FBS (Wisent), 1% chick embryo extract (MP Biomedicals), and 2.5 ng/ml bFGF (Cedarlane). For pharmacological inhibition, Lapatinib ditosylate (1 mM in DMSO; Santa
Cruz Biotechnology), PTP1b inhibitor CAS 765317-72-4 (10 mM in DMSO; Santa Cruz Biotechnologies) was added to the culture medium for a final concentration of 1 μM or 10 μM, respectively; equal dilution of DMSO was used as vehicle control.
In experiment [3] the test system is satellite cells. Description: Mitotic orientation by p-Aurk centrosome staining, EDL myofibers 36 h. To be noted: 36 h culture, recombinant EGF vs vehicle, FIGS. 2B and 2C.
Description: The inventors cultured single EDL myofibers for 36 h and satellite cell centrosomes were detected by immunostaining for phosphorylated aurora kinase (p-Aurk).
Characterization of Satellite Cell Divisions. The orientation of mitotic spindles in satellite cells was measured as described in Dumont et al. (2015). Single myofibers were fixed after 36 h of in vitro culture, as described above. Satellite cells were identified by Pax7 expression in the nucleus, as detected by immunofluorescene. Pax7 staining becomes cytoplasmic in mitotic satellite cells after the dissociation of the nuclear envelope, but is still discernable. Mitotic satellite cells were identified by positive p-Aurk staining, which labels cells from pro-metaphase to cytokinesis. Mitotic satellite cells with p-Aurk staining patterns that were not observed in WT cells, including monopolar, multipolar (>2), and abscission defects were quantified as abnormal. Mitotic orientations were manually counted according to the angle between the mitotic spindle and the tangential plane of the satellite cell's attachment point to the myofiber.
Experiment [4] has as its system EGFR phosphorylation. As to the kind of experiment: p-EGFR immunoblot in serum-starved, re-fed primary myoblasts. To be noted: 1 h. The method, then: Cell Culture and Co-Immunoprecipitation. Satellite cells were isolated from WT mice by fluorescence activated cell sorting and cultured as primary myoblasts on collagen-coated plates in primary myoblast growth media (Ham's F10 media (Gibco) with 20% FBS (Wisent), 1% penicillin-streptomycin (Gibco) and 5 ng/mL bFGF (Cedarlane)).
Immunoblotting. Proteins were separated on 10% SDS-PAGE and transferred to Immobilon-P PVDF membrane (EMD Millipore). Membranes were probed with primary antibodies, followed by light chain specific HRP-conjugated secondary antibodies at 1:5000 (Bio-Rad) and developed using Immobilon Western HRP substrate (EMD Millipore). Membranes were visualized using FluorChem HD2 (Alpha Innotech) or exposed to BIOMAX film (Eastman Kodak).
For orientation: In western blotting, separated proteins are transferred to a membrane and probed.

The text below walks through data of patent US20230114123A1, “METHOD OF STIMULATING ASYMMETRIC DIVISION OF SATELLITE STEM CELLS” (Ottawa Hospital Research Institute, priority 2017, published 2023).

“EGF: human recombinant EGF protein (Life Technologies), direct activator of the EGFR pathway”: the “p-EGFR staining in mdx fibers” value in experiment [1] is “P-EGFR was only observed in mdx fibers treated with EGF”. For the same compound, the “increase in total numbers of myogenic cells” value in experiment [2] is reported as “about 14%”. Also, the “increase in the proportion of mitotic cells aligned along the apicobasal axis” value in experiment [3] turned out to be 50%.
Take `CCc1oc2cc(S(=O)(=O)Nc3ccc(S(=O)(=O)Nc4nccs4)cc3)ccc2c1C(=O)c1cc(Br)c(O)c(Br)c1` [PTP1b inhibitor, 3-(3,5-dibromo-4-hydroxy-benzoyl)-2-ethyl-benzofuran-6-sulfonicacid-(4-(thiazol-2-ylsulfamyl)-phenyl)-amide, reference compound]: the “increase in EGFR phosphorylation (p-EGFR grey values)” value in experiment [4] (growth media alone, FIGS. 12A and 12B) is reported as 80%; in experiment [4] (in the presence of added recombinant EGF), 20%.
